What was measured:
rat TRPV1 = target: T1, rat TRPV1 (Rattus norvegicus, UniProt O35433); test: Functional assay: block of capsaicin-induced Ca2+ influx, rat assay (rTRPV1/HEK293, FLIPR); assay type: cell-based; conditions: rTRPV1/HEK293 cells, capsaicin challenge, Fluo-3 fluorescence; mean; > value = solubility limit in assay medium
T1 construct: expressed in transfected cells; host or cells: HEK293 (rTRPV1/HEK293), geneticin selection
Summary of the method: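 Compounds, as free base or TFA salt, tested from 10 μM in three-fold steps on rTRPV1-transfected HEK293 cells, with 30 min preincubation in low-calcium (20 μM) buffer. Capsaicin-evoked Ca2+ influx measured by FLIPR fluo3 signal before and 100 s after addition. Averaged IC50 from non-linear fits.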

human TRPV1 = target: T2, human TRPV1 (Homo sapiens, UniProt Q8NER1); test: Functional assay: block of capsaicin-induced Ca2+ influx, human assay (hTRPV1/HEK293, FLIPR); assay type: cell-based; conditions: hTRPV1/HEK293 cells, 150 nM capsaicin challenge, Fluo-3 fluorescence; mean; > value = solubility limit in assay medium
T2 construct: expressed in transfected cells; host or cells: HEK293 (hTRPV1/HEK293), zeocin selection
Summary of the method: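 HEK293 cells stably expressing human TRPV1, fluo3-loaded, preincubated 30 min with compound (serial 3-fold dilutions from 10 μM, duplicate) in 20 μM Ca2+ buffer. Capsaicin response taken as fluo3 fluorescence change before vs 100 s after agonist; IC50 by non-linear regression, mean values; free base or TFA salt.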

T2 sequence (Q8NER1 whole entry): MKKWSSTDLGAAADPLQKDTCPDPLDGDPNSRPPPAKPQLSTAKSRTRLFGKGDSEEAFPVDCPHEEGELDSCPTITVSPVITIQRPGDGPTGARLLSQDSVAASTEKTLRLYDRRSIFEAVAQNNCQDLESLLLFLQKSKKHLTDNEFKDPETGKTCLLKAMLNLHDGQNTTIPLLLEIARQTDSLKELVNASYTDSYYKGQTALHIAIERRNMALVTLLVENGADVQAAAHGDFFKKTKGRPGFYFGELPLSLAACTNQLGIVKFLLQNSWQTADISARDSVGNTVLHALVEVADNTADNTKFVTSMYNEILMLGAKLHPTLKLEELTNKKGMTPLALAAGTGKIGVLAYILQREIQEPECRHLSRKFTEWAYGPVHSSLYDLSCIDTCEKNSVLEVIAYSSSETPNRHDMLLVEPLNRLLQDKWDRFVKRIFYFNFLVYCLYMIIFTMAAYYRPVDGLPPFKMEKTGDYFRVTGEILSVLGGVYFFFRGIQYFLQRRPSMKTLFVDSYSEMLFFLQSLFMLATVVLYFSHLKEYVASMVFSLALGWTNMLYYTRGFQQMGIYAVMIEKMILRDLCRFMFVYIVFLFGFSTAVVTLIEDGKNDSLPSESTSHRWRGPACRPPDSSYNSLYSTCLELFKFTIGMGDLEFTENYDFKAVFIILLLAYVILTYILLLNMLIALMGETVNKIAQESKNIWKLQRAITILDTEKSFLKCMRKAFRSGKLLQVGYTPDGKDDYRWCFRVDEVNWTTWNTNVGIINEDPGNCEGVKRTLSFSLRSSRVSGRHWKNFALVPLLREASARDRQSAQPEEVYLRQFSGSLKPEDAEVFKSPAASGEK
T1 sequence (O35433 whole entry): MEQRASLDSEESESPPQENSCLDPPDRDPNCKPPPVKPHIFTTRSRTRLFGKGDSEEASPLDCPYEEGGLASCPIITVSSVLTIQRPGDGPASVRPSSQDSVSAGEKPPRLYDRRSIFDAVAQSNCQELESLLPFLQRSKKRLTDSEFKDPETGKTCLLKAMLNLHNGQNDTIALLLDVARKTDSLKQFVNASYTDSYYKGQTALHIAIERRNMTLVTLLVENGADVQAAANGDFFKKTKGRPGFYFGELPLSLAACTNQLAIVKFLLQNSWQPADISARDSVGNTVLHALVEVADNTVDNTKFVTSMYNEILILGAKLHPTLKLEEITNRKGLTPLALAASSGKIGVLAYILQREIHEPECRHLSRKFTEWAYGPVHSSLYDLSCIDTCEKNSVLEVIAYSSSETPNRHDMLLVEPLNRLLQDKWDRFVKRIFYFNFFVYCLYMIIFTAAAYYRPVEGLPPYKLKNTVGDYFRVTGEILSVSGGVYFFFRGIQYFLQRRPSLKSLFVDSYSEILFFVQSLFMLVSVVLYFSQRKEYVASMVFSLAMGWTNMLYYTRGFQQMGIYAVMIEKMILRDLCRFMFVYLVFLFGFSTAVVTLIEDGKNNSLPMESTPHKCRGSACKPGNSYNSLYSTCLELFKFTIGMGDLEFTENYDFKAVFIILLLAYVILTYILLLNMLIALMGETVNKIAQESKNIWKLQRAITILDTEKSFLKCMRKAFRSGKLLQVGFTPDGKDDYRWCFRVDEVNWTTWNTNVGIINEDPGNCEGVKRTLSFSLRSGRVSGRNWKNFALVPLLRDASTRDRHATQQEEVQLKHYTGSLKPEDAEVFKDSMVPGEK

Row | Compound | IC50 (rat TRPV1) [nM] | IC50 (human TRPV1) [nM]
1 | COC(=O)c1scc(C)c1Nc1nc2c(Nc3ccc(C(F)(F)F)cc3)ncnc2s1 [Example 48, 4-Methyl-3-[7-(4-trifluoromethyl-phenylamino)-thiazolo[5,4-d]pyrimidin-2-ylamino]-thiophene-2-carboxylic acid methyl ester] | 202 | 207
2 | FC(F)(F)c1ccc(Nc2ncnc3sc(Nc4c(Cl)cc(CN5CCOCC5)cc4Cl)nc23)cc1 [Example 238, N^2-(2,6-Dichloro-4-morpholin-4-ylmethyl-phenyl)-N^7-(4-trifluoromethyl-phenyl)-thiazolo[5,4-d]pyrimidine-2,7-diamine] | 215 | 223
3 | CS(=O)(=O)c1ccc(Nc2ncnc3sc(Nc4ccccc4Cl)nc23)cc1 [Example 126, N^2-(2-Chloro-phenyl)-N^7-(4-methanesulfonyl-phenyl)-thiazolo[5,4-d]pyrimidine-2,7-diamine] | 30 | 129
4 | FC(F)(F)c1ccc(Nc2nc3c(Nc4ccc(C(F)(F)F)cc4)ncnc3s2)cc1 [Example 22, N^2,N^7-Bis-(4-trifluoromethyl-phenyl)-thiazolo[5,4-d]pyrimidine-2,7-diamine] | 1690 | > 6670
5 | Cc1cccc(C)c1Nc1nc2c(Nc3ccc(C(F)(F)F)cc3)ncnc2s1 [Example 10, N^2-(2,6-Dimethyl-phenyl)-N^7-(4-trifluoromethyl-phenyl)thiazolo[5,4,d]pyrimidine-2,7-diamine] | 6 | 26
6 | Cc1ccccc1Nc1nc2c(Nc3ccc(S(=O)(=O)N4CCCC4)cc3)ncnc2s1 [Example 83, N^7-[4-(Pyrrolidine-1-sulfonyl)-phenyl]-N^2-o-tolyl-thiazolo[5,4-d]pyrimidine-2,7-diamine] | 2 | 3
7 | FC(F)(F)c1ccc(Nc2ncnc3sc(Nc4ccccc4C(F)(F)F)nc23)cn1 [Example 219, N^2-[2-(Trifluoromethyl)phenyl]-N^7-[6-(trifluoromethyl)pyridin-3-yl][1,3]thiazolo[5,4-d]pyrimidine-2,7-diamine] | 76 | 104
8 | Cc1cccc(C)c1Nc1nc2c(NC3Cc4ccccc4C3)ncnc2s1 [Example 41, N^2-(2,6-Dimethyl-phenyl)-N^7-indan-2-yl-thiazolo[5,4-d]pyrimidine-2,7-diamine] | 2040 | > 6670
9 | Cc1cccc(C)c1Nc1nc2c(Nc3ccc(SC(C)C)cc3)ncnc2s1 [Example 112, N^2-(2,6-Dimethyl-phenyl)-NT-(4-isopropylsulfanyl-phenyl)-thiazolo[5,4-d]pyrimidine-2,7-diamine] | 56 | 36
10 | CCN(CC)c1nc(Nc2ccc(C(F)(F)F)cc2)c2nc(Nc3c(Cl)cccc3Cl)sc2n1 [Example 188, N^2-(2,6-Dichloro-phenyl)-N^5,N^5-diethyl-N^7-(4-trifluoromethyl-phenyl)-thiazolo[5,4-d]pyrimidine-2,5,7-triamine] | 40 | 36
11 | CN(C)S(=O)(=O)c1ccc(Nc2ncnc3sc(Nc4c(Cl)cccc4Cl)nc23)cc1 [Example 75, 4-[2-(2,6-Dichloro-phenylamino)-thiazolo[5,4-d]pyrimidin-7-ylamino]-N,N-dimethyl-benzenesulfonamide] | 1 | 1
12 | Cc1cccc(Cl)c1Nc1nc2c(Nc3ccc(C(F)(F)F)cc3)ncnc2s1 [Example 14, N^2-(2-Chloro-6-methyl-phenyl)-N^7-(4-trifluoromethyl-phenyl)-thiazolo[5,4-d]pyrimidine-2,7-diamine] | 1 | 11
13 | FC(F)(F)c1ccc(Nc2ncnc3sc(Nc4c(Cl)cccc4Cl)nc23)cn1 [Example 2, N^2-(2,6-Dichloro-phenyl)-N^7-(6-trifluoromethyl-pyridin-3-yl)-thiazolo[5,4-d]pyrimidine-2,7-diamine] | 4 | 14
14 | Cc1nc(Nc2ccc(C(F)(F)F)c(Cl)c2)c2nc(Nc3c(C)cccc3C)sc2n1 [Example 247, N^7-(3-Chloro-4-trifluoromethyl-phenyl)-N^2-(2,6-dimethyl-phenyl)-5-methyl-thiazolo[5,4-d]pyrimidine-2,7-diamine] | 19 | 35
15 | Fc1cc(Nc2ncnc3sc(Nc4c(Cl)cccc4Cl)nc23)ccc1C(F)(F)F [Example 215, N^2-(2,6-Dichloro-phenyl)-N^7-(3-fluoro-4-trifluoromethyl-phenyl)-thiazolo[5,4-d]pyrimidine-2,7-diamine] | 8 | 15
16 | Cc1ccccc1Nc1nc2c(Nc3ccc(C(F)(F)F)cc3)ncnc2s1 [Example 17, N^2-o-Tolyl-N^7-(4-trifluoromethyl-phenyl)-thiazolo[5,4-d]pyrimidine-2,7-diamine] | 19 | 70

Row | Compound | IC50 (rat TRPV1) [nM] | IC50 (human TRPV1) [nM]
17 | O=S(=O)(c1ccc(Nc2ncnc3sc(Nc4ccccc4Cl)nc23)cc1)N1CCOCC1 [Example 216, N^2-(2-Chlorophenyl)-N^7-[4-(morpholin-4-ylsulfonyl)phenyl][1,3]thiazolo[5,4-d]pyrimidine-2,7-diamine] | 15 | 24
18 | Cc1nc(Nc2ccc(C(F)(F)F)nc2)c2nc(Nc3c(-c4ccccc4)noc3C)sc2n1 [Example 26, 5-Methyl-N^2-(5-methyl-3-phenyl-isoxazol-4-yl)-N^7-(6-trifluoromethyl-pyridin-3-yl)-thiazolo[5,4-d]pyrimidine-2,7-diamine] | 55 | 208
19 | Cc1nc(Nc2ccc(OC(F)(F)F)cc2)c2nc(Nc3c(Cl)cccc3Cl)sc2n1 [Example 111, N^2-(2,6-Dichloro-phenyl)-5-methyl-N^7-(4-trifluoromethoxy-phenyl)-thiazolo[5,4-d]pyrimidine-2,7-diamine] | 16 | 36
20 | CN1CCN(c2nc(Nc3ccc(C(F)(F)F)cc3)c3nc(Nc4c(Cl)cccc4Cl)sc3n2)CC1 [Example 187, N^2-(2,6-Dichloro-phenyl)-5-(4-methyl-piperazin-1-yl)-N^7-(4-trifluoromethyl-phenyl)-thiazolo[5,4-d]pyrimidine-2,7-diamine] | 1320 | 809
21 | CC1CCCCN1c1nc(Nc2ccc(C(F)(F)F)c(Cl)c2)c2nc(Nc3c(Cl)cccc3Cl)sc2n1 (racemic) [Example 136, (racemic)-N^7-(3-Chloro-4-trifluoromethyl-phenyl)-N^2-(2,6-dichloro-phenyl)-5-(2-methyl-piperidin-1-yl)-thiazolo[5,4-d]pyrimidine-2,7-diamine] | 25 | 205
22 | FC(F)(F)c1ccc(Nc2nc(NCCCN3CCOCC3)nc3sc(Nc4c(Cl)cccc4Cl)nc23)cc1 [Example 100, N^2-(2,6-Dichloro-phenyl)-N^5-(3-morpholin-4-yl-propyl)-N^7-(4-trifluoromethyl-phenyl)-thiazolo[5,4-d]pyrimidine-2,5,7-triamine] | 6 | 17
23 | COc1ccc(Nc2ncnc3sc(Nc4c(C)cccc4C)nc23)cc1C(F)(F)F [Example 168, N^2-(2,6-Dimethyl-phenyl)-N^7-(4-methoxy-3-trifluoromethyl-phenyl)-thiazolo[5,4-d]pyrimidine-2,7-diamine] | > 6670 | > 6670
24 | CSc1ccc(Nc2nc(C)nc3sc(Nc4c(Cl)cccc4Cl)nc23)cn1 [Example 185, N^2-(2,6-Dichloro-phenyl)-5-methyl-N^7-(6-methylsulfanyl-pyridin-3-yl)-thiazolo[5,4-d]pyrimidine-2,7-diamine] | 32 | 31
25 | CS(=O)(=O)c1ccccc1Nc1nc2c(Nc3ccc(C(F)(F)F)nc3)ncnc2s1 [Example 199, N^2-(2-Methanesulfonyl-phenyl)-N^7-(6-trifluoromethyl-pyridin-3-yl)-thiazolo[5,4-d]pyrimidine-2,7-diamine] | 1080 | 2150
26 | Cc1cccc(C)c1Nc1nc2c(Nc3ccc(C#N)cc3)ncnc2s1 [Example 31, 4-[2-(2,6-Dimethyl-phenylamino)-thiazolo[5,4-d]pyrimidin-7-ylamino]-benzonitrile] | 33 | 40
27 | Cc1noc(C)c1Nc1nc2c(Nc3ccc(C(F)(F)F)c(Cl)c3)ncnc2s1 [Example 50, N^7-(3-Chloro-4-trifluoromethyl-phenyl)-N^2-(3,5-dimethyl-isoxazol-4-yl)thiazolo[5,4d]pyrimidine-2,7-diamine] | > 6670 | > 6670
28 | Cc1nc(Nc2ccc(S(C)(=O)=O)cc2)c2nc(Nc3c(Cl)cccc3Cl)sc2n1 [Example 78, N^2-(2,6-Dichloro-phenyl)-N^7-(4-methanesulfonyl-phenyl)-5-methyl-thiazolo[5,4-d]pyrimidine-2,7-diamine] | 1 | 2
29 | Cc1nc(Nc2cccnc2)c2nc(Nc3c(Cl)cccc3Cl)sc2n1 [Example 166, N^2-(2,6-Dichloro-phenyl)-5-methyl-N^7-pyridin-3-yl-thiazolo[5,4-d]pyrimidine-2,7-diamine] | > 6670 | > 6670
30 | Cc1ccccc1Nc1nc2c(Nc3ccc(S(C)(=O)=O)cc3)ncnc2s1 [Example 116, N^7-(4-Methanesulfonyl-phenyl)-N^2-o-tolyl-thiazolo[5,4-d]pyrimidine-2,7-diamine] | 11 | 45
31 | O=S(=O)(c1ccc(Nc2ncnc3sc(Nc4c(Cl)cccc4Cl)nc23)cc1)N1CCCC1 [Example 76, N^2-(2,6-Dichloro-phenyl)-N^7-[4-(pyrrolidine-1-sulfonyl)-phenyl]-thiazolo[5,4-d]pyrimidine-2,7-diamine] | 1 | 1

Source: patent US20080004253A1, “Thiazolopyrimidine modulators of TRPV1” (priority 2006, published 2008)
